{
  "source": "ChEMBL document CHEMBL1130720",
  "about": "“Design, synthesis, and conformational analysis of a novel series of HIV protease inhibitors” (Bioorg Med Chem Lett, 1998)",
  "key": {"[1]": {"biological_target": "T1, Human immunodeficiency virus type 1 protease (Human immunodeficiency virus 1, UniProt Q72874)", "assay": "Binding affinity to HIV-1 protease was determined"}, "[2]": {"biological_target": "T1, Human immunodeficiency virus type 1 protease", "assay": "Binding affinity against HIV-1 protease was determined"}},
  "data": [
    {"compound": "COc1ccc(S(=O)(=O)N(CC(O)CN(CCc2ccccc2)C(=O)N[C@H](C(=O)OCc2ccccc2)C(C)C)CC2CCCC2)cc1", "note": "(single isomer, unassigned)", "values": [
      {"measurement": "Ki", "setting": "[1]", "result": 7, "unit": "nM"}
    ]},
    {"compound": "COc1ccc(S(=O)(=O)N(CC2CCCC2)C[C@@H](O)CN(CCc2ccccc2)C(=O)OC(C)(C)C)cc1", "values": [
      {"measurement": "Ki", "setting": "[1]", "result": 125, "unit": "nM"}
    ]},
    {"compound": "COc1ccc(S(=O)(=O)N(CC2CCCC2)C[C@@H](O)CN(CCc2ccccc2)C(=O)OC2CCSC2)cc1", "note": "(some centres undefined)", "values": [
      {"measurement": "Ki", "setting": "[1]", "result": 104, "unit": "nM"}
    ]},
    {"compound": "COc1ccc(S(=O)(=O)N(CC2CCCC2)C[C@@H](O)CN(CCc2ccccc2)C(=O)OC2CCCS(=O)(=O)C2)cc1", "note": "(some centres undefined)", "values": [
      {"measurement": "Ki", "setting": "[1]", "result": 1400, "unit": "nM"}
    ]},
    {"compound": "COc1ccc(S(=O)(=O)N(CC2CCCC2)C[C@@H](O)CN(CCc2ccccc2)C(=O)Cc2cccc(NS(N)(=O)=O)c2)cc1", "values": [
      {"measurement": "Ki", "setting": "[1]", "result": 29, "unit": "nM"}
    ]},
    {"compound": "COc1ccc(S(=O)(=O)N(CC2CCCC2)C[C@@H](O)CN(CCc2ccccc2)C(=O)NCc2ccccc2)cc1", "values": [
      {"measurement": "Ki", "setting": "[2]", "result": 22, "unit": "nM"}
    ]},
    {"compound": "COc1ccc(S(=O)(=O)N(CC2CCCC2)C[C@@H](O)CN(CCc2ccccc2)C(=O)N[C@H]2c3ccccc3C[C@H]2O)cc1", "values": [
      {"measurement": "Ki", "setting": "[2]", "result": 43, "unit": "nM"}
    ]},
    {"compound": "COc1ccc(S(=O)(=O)N(CC2CCCC2)C[C@@H](O)CN(CCc2ccccc2)C(=O)OCc2cccnc2)cc1", "values": [
      {"measurement": "Ki", "setting": "[1]", "result": 17, "unit": "nM"}
    ]},
    {"compound": "CNC(=O)N(CCc1ccccc1)C[C@H](O)CN(CC1CCCC1)S(=O)(=O)c1ccc(OC)cc1", "values": [
      {"measurement": "Ki", "setting": "[2]", "result": 3400, "unit": "nM"}
    ]},
    {"compound": "COc1ccc(S(=O)(=O)N(CC2CCCC2)C[C@@H](O)CN(Cc2ccccc2)C(=O)O[C@H]2CCOC2)cc1", "values": [
      {"measurement": "Ki", "setting": "[1]", "result": 600, "unit": "nM"}
    ]},
    {"compound": "COc1ccc(S(=O)(=O)N(CC2CCCC2)C[C@@H](O)CN(CCc2ccccc2)C(=O)NC(C)(C)C)cc1", "values": [
      {"measurement": "Ki", "setting": "[2]", "result": 2100, "unit": "nM"}
    ]},
    {"compound": "COc1ccc(S(=O)(=O)N(CC2CCCC2)C[C@@H](O)CN(CCc2ccccc2)C(=O)OCc2ccncc2)cc1", "values": [
      {"measurement": "Ki", "setting": "[1]", "result": 200, "unit": "nM"}
    ]},
    {"compound": "COc1ccc(S(=O)(=O)N(CC2CCCC2)C[C@@H](O)CN(CCc2ccccc2)C(=O)OC2CCCSC2)cc1", "note": "(some centres undefined)", "values": [
      {"measurement": "Ki", "setting": "[1]", "result": 300, "unit": "nM"}
    ]},
    {"compound": "COc1ccc(S(=O)(=O)N(CC2CCCC2)C[C@@H](O)CN(CCc2ccccc2)C(=O)Cc2ccncc2NS(N)(=O)=O)cc1", "values": [
      {"measurement": "Ki", "setting": "[1]", "result": 27, "unit": "nM"}
    ]},
    {"compound": "COc1ccc(S(=O)(=O)N(CC2CCCC2)C[C@@H](O)CN(CCc2ccccc2)C(=O)NC(C)C)cc1", "values": [
      {"measurement": "Ki", "setting": "[2]", "result": "> 10000", "unit": "nM"}
    ]},
    {"compound": "COc1ccc(S(=O)(=O)N(CC2CCCC2)C[C@@H](O)CN(CCc2ccccc2)C(=O)OC2COCOC2)cc1", "values": [
      {"measurement": "Ki", "setting": "[1]", "result": 15, "unit": "nM"}
    ]},
    {"compound": "COc1ccc(S(=O)(=O)N(CC2CCCC2)C[C@@H](O)CN(CCc2ccccc2)C(=O)OCc2cncs2)cc1", "values": [
      {"measurement": "Ki", "setting": "[1]", "result": 38, "unit": "nM"}
    ]},
    {"compound": "COc1ccc(S(=O)(=O)N(CC2CCCC2)C[C@@H](O)CN(CCc2ccccc2)C(=O)Cc2cccc(O)c2C)cc1", "values": [
      {"measurement": "Ki", "setting": "[1]", "result": 66, "unit": "nM"}
    ]},
    {"compound": "COc1ccc(S(=O)(=O)N(CC2CCCC2)C[C@@H](O)CN(CCc2ccccc2)C(=O)CC2CCCC(NS(N)(=O)=O)C2)cc1", "note": "(some centres undefined)", "values": [
      {"measurement": "Ki", "setting": "[1]", "result": 76, "unit": "nM"}
    ]},
    {"compound": "COc1ccc(S(=O)(=O)N(CC2CCCC2)C[C@@H](O)CN(CCc2ccccc2)C(=O)Cc2cccc(NS(N)(=O)=O)c2C)cc1", "values": [
      {"measurement": "Ki", "setting": "[1]", "result": 680, "unit": "nM"}
    ]},
    {"compound": "COc1ccc(S(=O)(=O)N(CC2CCCC2)C[C@@H](O)CN(CCc2ccccc2)C(=O)Cc2cncc(NS(N)(=O)=O)c2)cc1", "values": [
      {"measurement": "Ki", "setting": "[1]", "result": 220, "unit": "nM"}
    ]},
    {"compound": "COc1ccc(S(=O)(=O)N(CC2CCCC2)C[C@@H](O)CN(CCc2ccccc2)C(=O)Nc2cccc(OC)c2)cc1", "values": [
      {"measurement": "Ki", "setting": "[2]", "result": "> 10000", "unit": "nM"}
    ]},
    {"compound": "COc1ccc(S(=O)(=O)N(CC2CCCC2)C[C@@H](O)CN(CCc2ccccc2)C(=O)NC2CCc3ccccc32)cc1", "note": "(some centres undefined)", "values": [
      {"measurement": "Ki", "setting": "[2]", "result": "> 10000", "unit": "nM"}
    ]},
    {"compound": "COc1ccc(S(=O)(=O)N(CC2CCCC2)C[C@@H](O)CN(CCc2ccccc2)C(=O)Cc2ccccc2)cc1", "values": [
      {"measurement": "Ki", "setting": "[1]", "result": 20, "unit": "nM"}
    ]},
    {"compound": "COc1ccc(S(=O)(=O)N(CC2CCCC2)C[C@@H](O)CN(CCc2ccccc2)C(=O)O[C@H]2CCOC2)cc1", "values": [
      {"measurement": "Ki", "setting": "[1]", "result": 40, "unit": "nM"}
    ]},
    {"compound": "COc1ccc(S(=O)(=O)N(CC2CCCC2)C[C@@H](O)CN(CCc2ccccc2)C(=O)O[C@@H]2CO[C@H]3OCC[C@H]32)cc1", "values": [
      {"measurement": "Ki", "setting": "[1]", "result": 50, "unit": "nM"}
    ]},
    {"compound": "COc1ccc(S(=O)(=O)N(CC2CCCC2)C[C@@H](O)CN(CCc2ccccc2)C(=O)Oc2ccccc2)cc1", "values": [
      {"measurement": "Ki", "setting": "[1]", "result": 173, "unit": "nM"}
    ]},
    {"compound": "COc1ccc(S(=O)(=O)N(CC2CCCC2)C[C@@H](O)CN(CCc2ccccc2)C(=O)OC2CCS(=O)(=O)C2)cc1", "note": "(some centres undefined)", "values": [
      {"measurement": "Ki", "setting": "[1]", "result": 38, "unit": "nM"}
    ]},
    {"compound": "COc1ccc(S(=O)(=O)N(CC2CCCC2)C[C@@H](O)CN(CCc2ccccc2)C(=O)Nc2ccccc2)cc1", "values": [
      {"measurement": "Ki", "setting": "[2]", "result": "> 20000", "unit": "nM"}
    ]}
  ]
}
